Results on 15 compounds are retold here after PMC9737391, “Trifluoromethylcinnamanilide Michael Acceptors for Treatment of Resistant Bacterial Infections” (International Journal of Molecular Sciences, 2022).

A short description of data set [1]: Lipophilicity determination by RP-HPLC. Format: physicochemical. To be noted: for log k: RP-HPLC, logarithm of capacity factor k. How it is done:
It is evident from the graphs in Figure 1 that the correlation coefficients of the dependences of log k/log D6.5/log D7.4 have a value of r = 0.999 (n = 32), which means that the investigated compounds behave insignificantly differently in aqueous media with different pH. Moreover, lipophilicity was calculated as log P and Clog P using two prediction programs. […] Therefore, only log P values predicted by ACD/Percepta can be used for correlations with experimental values. These matches are shown in the graphs in Figure 2, and according to the correlation coefficient r~0.940 (n = 32), it can be argued that even the predicted lipophilicity values correlate with the experimentally measured ones. However, the largest variations were observed (no difference for series 1, 2) for compounds substituted with 2-Cl, 2-CF3, 2,5-Cl, 4-F, 4-CF3, and 3,5-F, 3,5-Cl. These are mainly substituents capable of forming hydrogen and other types of non-bonding interactions both with the surrounding environment and within the molecule. Overall, series 1 (3-CF3) is less lipophilic than series 2 (4-CF3), but the differences in the experimental data are insignificant. Unsubstituted derivatives 1a/2a are the least lipophilic compounds, while derivatives 1o/2o (3,5-Cl) and 1p/2p (3,5-CF3) are the most lipophilic compounds.
Experimental determination of lipophilicity values (log k, log D6.5, and log D7.4) was performed under the same conditions and on the same device as described by Strharsky et al..

In data set [1], `O=C(/C=C/c1cccc(C(F)(F)F)c1)Nc1ccccc1` [1a, (2E)-N-Phenyl-3-[3-(trifluoromethyl)phenyl]prop-2-enamide] displayed a log k of 0.5234.

By melting point is commonly meant the temperature of the solid-liquid transition. `O=C(/C=C/c1cccc(C(F)(F)F)c1)Nc1ccccc1F` [1b, (2E)-N-(2-Fluorophenyl)-3-[3-(trifluoromethyl)phenyl]prop-2-enamide]: the melting point lay in the range of 115 to 117 °C. Moreover, in data set [1], the log k is on record as 0.5375.

In data set [1], `O=C(/C=C/c1cccc(C(F)(F)F)c1)Nc1ccc(F)cc1` [1d, (2E)-N-(4-Fluorophenyl)-3-[3-(trifluoromethyl)phenyl]prop-2-enamide] returned a log k of 0.5760.

With `O=C(/C=C/c1cccc(C(F)(F)F)c1)Nc1ccccc1Cl` [1e, (2E)-N-(2-Chlorophenyl)-3-[3-(trifluoromethyl)phenyl]prop-2-enamide], the melting point fell in the range of 118 to 120 °C. Further, the log k in data set [1] was determined as 0.6568.

For `O=C(/C=C/c1cccc(C(F)(F)F)c1)Nc1ccccc1C(F)(F)F` [1h, (2E)-N-[2-(Trifluoromethyl)phenyl]-3-[3-(trifluoromethyl)phenyl]prop-2-enamide], the melting point lay within 111 to 113 °C. In data set [1], this compound showed a log k of 0.5710.

On to `O=C(/C=C/c1cccc(C(F)(F)F)c1)Nc1ccc(F)cc1F` [1k, (2E)-N-(2,4-Difluorophenyl)-3-[3-(trifluoromethyl)phenyl]prop-2-enamide], for which the melting point lay in the range of 143 to 145 °C. Further, the log k in data set [1] amounted to 0.5906.

With `O=C(/C=C/c1cccc(C(F)(F)F)c1)Nc1cc(F)cc(F)c1` [1l, (2E)-N-(3,5-Difluorophenyl)-3-[3-(trifluoromethyl)phenyl]prop-2-enamide], the melting point is 131 to 133 °C. The same compound came in with a log k in data set [1] of 0.8186.

`O=C(/C=C/c1cccc(C(F)(F)F)c1)Nc1ccc(Cl)cc1Cl` [1m, (2E)-N-(2,4-Dichlorophenyl)-3-[3-(trifluoromethyl)phenyl]prop-2-enamide] gave a melting point of 134 to 136 °C. The compound further yielded a log k in data set [1] of 0.9782.

As to `O=C(/C=C/c1cccc(C(F)(F)F)c1)Nc1cc(Cl)ccc1Cl` [1n, (2E)-N-(2,5-Dichlorophenyl)-3-[3-(trifluoromethyl)phenyl]prop-2-enamide], the melting point fell in the range of 145 to 147 °C. In data set [1], this compound had a log k of 0.9612.

For `O=C(/C=C/c1ccc(C(F)(F)F)cc1)Nc1ccccc1F` [2b, (2E)-N-(2-Fluorophenyl)-3-[4-(trifluoromethyl)phenyl]prop-2-enamide], the melting point is 164 to 166 °C. In addition, in data set [1], the log k is listed as 0.5515.

The compound `O=C(/C=C/c1ccc(C(F)(F)F)cc1)Nc1cccc(F)c1` [2c, (2E)-N-(3-Fluorophenyl)-3-[4-(trifluoromethyl)phenyl]prop-2-enamide] gave a melting point of 146 to 148 °C. In addition, the log k in data set [1] worked out at 0.6462.

With `O=C(/C=C/c1ccc(C(F)(F)F)cc1)Nc1ccc(F)cc1` [2d, (2E)-N-(4-Fluorophenyl)-3-[4-(trifluoromethyl)phenyl]prop-2-enamide], the melting point is 149 to 151 °C. The log k in data set [1] was 0.5887.

As to `O=C(/C=C/c1ccc(C(F)(F)F)cc1)Nc1ccccc1Cl` [2e, (2E)-N-(2-Chlorophenyl)-3-[4-(trifluoromethyl)phenyl]prop-2-enamide], the melting point was 171 to 173 °C. Moreover, the log k in data set [1] was determined as 0.6614.

Regarding `O=C(/C=C/c1ccc(C(F)(F)F)cc1)Nc1cccc(Cl)c1` [2f, (2E)-N-(3-Chlorophenyl)-3-[4-(trifluoromethyl)phenyl]prop-2-enamide], the melting point is 150 to 152 °C. The same compound showed a log k in data set [1] of 0.8095.

As to “(2E)-N-Phenyl-3-[3-(trifluoromethyl)phenyl]prop-2-enamide [2a]”, the log k in data set [1] amounted to 0.5351. Moreover, the “log D6.5” value in data set [1] (pH 6.5) turned out to be 0.4751. Further, the “log D7.4” value in data set [1] (pH 7.4) was determined as 0.4684.
